Assay results as given in PMC8466554, “Heteroaryl-Ethylenes as New Lead Compounds in the Fight against High Priority Bacterial Strains” (Antibiotics, 2021).
Like-named read-outs stand apart in the source and are kept apart here.

Key:
[1] = system: CaCo-2 cells; assay: MTT cytotoxicity assay; format: cell-based, human; settings: 24 h of incubation relative to untreated controls
Procedure: To evaluate the biological activity of the PBn series, compounds were screened for toxicity against the colon-rectal cancer cell line CaCo-2 (ATCC HTB-37). These human cancer cells were treated with solutions of the compounds at decreasing concentrations, starting from 100 μM up to 0.01 μM. The reference compound used for these assays was 5-Fluorouracil (5-Fu), a pyrimidine analogue belonging to the family of antimetabolite. […] Briefly, human colorectal adenocarcinoma cells (CaCo-2 HTB-37^TM Colorectal Adenocarcinoma Human, American Type Culture Collection, Manassas, VA, USA) were grown in Dulbecco’s MEM (DMEM) with 10% heat-inactivated fetal bovine serum, 2 mM L-Alanyl-L-Glutamine, penicillin-streptomycin (50 units-50 μg for mL) and incubated at 37 °C in a humidified atmosphere of 5% CO2, 95% air. CaCo-2 cells were plated in 96 well pates and incubated at 37 °C. The PBn series compounds and 5-FU were prepared as a 1 mM solution in 10 mL with 0.01% DMSO. Then, 24 h after plating, cells were treated with 20 μL of each solution. Untreated cells were used as controls. […] The results were read on a multiwell scanning spectrophotometer (AF2200 plate reader, Eppendorf, Milan, Italy), using a wavelength of 569 nm.

[2] = system: S.aureus USA300-CAMRSA; assay: MIC and MBC microtiter plate assay; format: cell-based, Staphylococcus aureus
[3] = system: E. coli ATCC25922; assay: MIC and MBC microtiter plate assay, also with different inocula; format: cell-based, Escherichia coli
[4] = system: E. faecalis ATCC51299-VRE; assay: as above; format: cell-based; settings: E. faecalis ATCC51299-VRE
[5] = system: S.aureus ATCC12598-MSSA; assay: as above; format: cell-based, Staphylococcus aureus; settings: S.aureus ATCC12598-MSSA
[6] = system: K. pneumoniae ATCC700603; assay: MIC microtiter plate assay; format: cell-based, Klebsiella pneumoniae
[7] = system: K. pneumoniae ATCC BAA-2814; assay: MIC microtiter plate assay; format: cell-based, Klebsiella pneumoniae; settings: K. pneumoniae ATCC BAA-2814 (MDR strain)
[8] = system: S.aureus Mu50-VISA; assay: MIC and MBC microtiter plate assay; format: cell-based, Staphylococcus aureus
[9] = system: P. aeruginosa ATCC27853; assay: MIC microtiter plate assay; format: cell-based, Pseudomonas aeruginosa
[10] = system: S.aureus ATCC29213-MSSA; assay: MIC and MBC microtiter plate assay; format: cell-based, Staphylococcus aureus
[11] = system: E. faecalis ATCC29212-VSE; assay: MIC and MBC microtiter plate assay; format: cell-based
[12] = system: A. baumannii ATCC17978; assay: MIC and MBC microtiter plate assay, also with different inocula; format: cell-based, Acinetobacter baumannii; settings: A. baumannii ATCC17978

MIC [2] [µg/mL]	MIC ([2]; value in brackets) [µM]	MIC [3] [µg/mL]	MIC ([3]; value in brackets) [µM]	MIC [4] [µg/mL]	MIC ([4]; value in brackets) [µM]	MIC [5] [µg/mL]	MIC ([5]; value in brackets) [µM]	MIC [6] [µg/mL]	MIC ([6]; value in brackets) [µM]	MIC [8] [µg/mL]	MIC ([8]; value in brackets) [µM]	MIC [9] [µg/mL]	MIC ([9]; value in brackets) [µM]	MIC [10] [µg/mL]	MIC ([10]; value in brackets) [µM]	MIC [11] [µg/mL]	MIC ([11]; value in brackets) [µM]	MIC [12] [µg/mL]	SMILES	IC50 [1] [nM]	further results
–	–	–	–	–	–	–	–	–	–	–	–	–	–	–	–	–	–	–	O=c1[nH]cc(F)c(=O)[nH]1 [5-FU, 5-Fluorouracil, reference compound]	27400	IC50 ([1]; Homo sapiens, Caco-2, 24 h): 27400 nM
2	4.80	16	38.43	32	76.87	2	4.80	> 128	> 307.47	32	76.87	> 128	> 307.47	4	9.61	32	76.87	128	CN(C)c1ccc(/C=C/c2ccc3ccccc3[n+]2C)cc1.[I-] [PB1]	1200	MIC [7]: > 128 µg/mL; MIC ([7]; value in brackets): > 307.47 µM; MIC ([12]; value in brackets): 307.47 µM
2	4.39	16	35.14	32	70.28	8	17.57	> 128	> 281.10	32	70.28	> 128	281.10	4	8.78	32	70.28	64	C[n+]1c(/C=C/c2ccc(-c3ccccc3)s2)ccc2ccccc21.[I-] [PB3]	871	MIC ([12]; value in brackets): 140.55 µM
